In patent US9179674B2, “Macrocyclic picolinamide compounds with fungicidal activity” (DOW AGROSCIENCES LLC, priority 2013, dated 2015):
Read-outs that look alike come from different tables or passages of the source.

Assays:
[1] = tested on: Mycosphaerella graminicola; Anamorph: Septoria tritici; assay: Leaf Blotch of Wheat fungicidal activity (SEPTTR); type: in vivo; settings: Zymoseptoria tritici; for pest or weed control at 100 ppm: rate 100 ppm; for pest or weed control at 121.5 g/ha: rate 121.5 g/H
Protocol: Evaluation of Fungicidal Activity: Leaf Blotch of Wheat (Mycosphaerella graminicola; Anamorph: Septoria tritici; Bayer code […]) Technical grades of materials were dissolved in acetone, which were then mixed with nine volumes of water containing 110 ppm Triton X-100. The fungicide solutions were applied onto wheat seedlings using an automated booth sprayer to run-off. All sprayed plants were allowed to air dry prior to further handling. All fungicides were evaluated using the aforementioned method for their activity vs. all target diseases. Wheat leaf blotch and brown rust activity were also evaluated using track spray applications, in which case the fungicides were formulated as EC formulations, containing 0.1% Trycol 5941 in the spray solutions. Wheat plants (variety Yuma) were grown from seed in a greenhouse in 50% mineral soil/50% soil-less Metro mix until the first leaf was fully emerged, with 7-10 seedlings per pot. These plants were inoculated with an aqueous spore suspension of Septoria tritici either prior to or after fungicide treatments. After inoculation the plants were kept in 100% relative humidity (one day in a dark dew chamber followed by two to three days in a lighted dew chamber at 20° C.) to permit spores to germinate and infect the leaf. The plants were then transferred to a greenhouse set at 20° C. for disease to develop. When disease symptoms were fully expressed on the 1st leaves of untreated plants, infection levels were assessed on a scale of 0 to 100 percent disease severity. Percent disease control was calculated using the ratio of disease severity on treated plants relative to untreated plants.

Puccinia triticina = assay: Wheat Brown Rust fungicidal activity (PUCCRT); type: in vivo; settings: Puccinia triticina; for pest or weed control at 100 ppm: rate 100 ppm; for pest or weed control at 121.5 g/ha: rate 121.5 g/H
Protocol: Technical grades of materials were dissolved in acetone, which were then mixed with nine volumes of water containing 110 ppm Triton X-100. The fungicide solutions were applied onto wheat seedlings using an automated booth sprayer to run-off. All sprayed plants were allowed to air dry prior to further handling. All fungicides were evaluated using the aforementioned method for their activity vs. all target diseases. Wheat leaf blotch and brown rust activity were also evaluated using track spray applications, in which case the fungicides were formulated as EC formulations, containing 0.1% Trycol 5941 in the spray solutions. Wheat plants (variety Yuma) were grown from seed in a greenhouse in 50% mineral soil/50% soil-less Metro mix until the first leaf was fully emerged, with 7-10 seedlings per pot. These plants were inoculated with an aqueous spore suspension of Septoria tritici either prior to or after fungicide treatments. After inoculation the plants were kept in 100% relative humidity (one day in a dark dew chamber followed by two to three days in a lighted dew chamber at 20° C.) to permit spores to germinate and infect the leaf. The plants were then transferred to a greenhouse set at 20° C. for disease to develop. When disease symptoms were fully expressed on the 1st leaves of untreated plants, infection levels were assessed on a scale of 0 to 100 percent disease severity. Percent disease control was calculated using the ratio of disease severity on treated plants relative to untreated plants. Evaluation of Fungicidal Activity: Wheat Brown Rust (Puccinia triticina; Synonym: Puccinia recondite f sp. tritici; Bayer code PUCCRT) Wheat plants (variety Yuma) were grown from seed in a greenhouse in 50% mineral soil/50% soil-less Metro mix until the first leaf was fully emerged, with 7-10 seedlings per pot. These plants were inoculated with an aqueous spore suspension of Puccinia triticina either prior to or after fungicide treatments. After inoculation the plants were kept in a dark dew room at 22° C. with 100% relative humidity overnight to permit spores to germinate and infect the leaf. The plants were then transferred to a greenhouse set at 24° C. for disease to develop. Fungicide formulation, application and disease assessment followed the procedures as described in the Example A.

[2] = 24 h, 1 Day Protectant, read-out: Disease control SEPTTR 1DP
[3] = 72 h, 3 Day Curative, read-out: Disease control SEPTTR 3DC
[4] = 24 h, 1 Day Protectant, read-out: Disease control PUCCRT 1DP
[5] = 72 h, 3 Day Curative, read-out: Disease control PUCCRT 3DC

SMILES	pest or weed control at 100 ppm [1, 2]	pest or weed control at 121.5 g/ha [1, 2]	pest or weed control at 100 ppm [1, 3]	pest or weed control at 121.5 g/ha [1, 3]	pest or weed control at 100 ppm (Puccinia triticina; [4])	pest or weed control at 121.5 g/ha (Puccinia triticina; [4])	pest or weed control at 100 ppm (Puccinia triticina; [5])	pest or weed control at 121.5 g/ha (Puccinia triticina; [5])
CCCCCO[C@@H]1[C@@H](Cc2ccc(C)cc2)COC[C@H](NC(=O)c2nccc(OC)c2OC(C)=O)C(=O)O[C@H]1C [Compound F53]	80 to 100%	80 to 100%	80 to 100%	0 to 80%	80 to 100%	80 to 100%	80 to 100%	0 to 80%
CCCCCO[C@@H]1[C@@H](CCc2ccccc2)COC[C@H](NC(=O)c2nccc(OC)c2OC(C)=O)C(=O)O[C@H]1C [Compound F55]	80 to 100%	–	80 to 100%	–	80 to 100%	–	80 to 100%	–
COc1ccnc(C(=O)N[C@H]2COC[C@H](CCc3ccccc3)[C@@H](OC(=O)C3CC3)[C@H](C)OC2=O)c1OC(C)=O [Compound F57]	80 to 100%	80 to 100%	80 to 100%	80 to 100%	80 to 100%	80 to 100%	80 to 100%	0 to 80%
COc1ccnc(C(=O)N[C@H]2COC[C@H](CCc3ccccc3)[C@@H](Oc3ccc(C)cc3)[C@H](C)OC2=O)c1OC(C)=O [Compound F58]	80 to 100%	80 to 100%	80 to 100%	80 to 100%	80 to 100%	80 to 100%	80 to 100%	0 to 80%
COc1ccnc(C(=O)N[C@H]2COC[C@H](Cc3ccc(F)cc3)[C@@H](Oc3ccccc3)[C@H](C)OC2=O)c1OC(C)=O [Compound F59]	80 to 100%	80 to 100%	80 to 100%	80 to 100%	80 to 100%	80 to 100%	80 to 100%	0 to 80%
COc1ccnc(C(=O)N[C@H]2COC[C@H](Cc3ccc(C)cc3)[C@@H](OC(=O)C3CC3)[C@H](C)OC2=O)c1OC(C)=O [Compound F61]	80 to 100%	80 to 100%	80 to 100%	0 to 80%	80 to 100%	80 to 100%	80 to 100%	0 to 80%
COc1ccnc(C(=O)N[C@H]2COC[C@H](Cc3ccc(C)cc3)[C@@H](OCCCC(F)(F)F)[C@H](C)OC2=O)c1OC(C)=O [Compound F62]	80 to 100%	80 to 100%	80 to 100%	80 to 100%	80 to 100%	80 to 100%	80 to 100%	0 to 80%
COc1ccnc(C(=O)N[C@H]2COC[C@H](Cc3ccc(C)cc3)[C@@H](Oc3ccccc3)[C@H](C)OC2=O)c1OC(C)=O [Compound F63]	80 to 100%	80 to 100%	80 to 100%	80 to 100%	80 to 100%	80 to 100%	80 to 100%	0 to 80%
COc1ccnc(C(=O)N[C@H]2COC[C@H](Cc3ccc(C)cc3)[C@@H](OC3CCCC3)[C@H](C)OC2=O)c1OC(C)=O [Compound F64]	80 to 100%	–	80 to 100%	–	80 to 100%	–	80 to 100%	–
COc1ccnc(C(=O)N[C@H]2COC[C@H](Cc3ccc(C(F)(F)F)cc3)[C@@H](OCC(C)C)[C@H](C)OC2=O)c1OC(C)=O [Compound F65]	80 to 100%	80 to 100%	80 to 100%	80 to 100%	80 to 100%	80 to 100%	80 to 100%	0 to 80%
COc1ccnc(C(=O)N[C@H]2COC[C@H](Cc3ccc(C(F)(F)F)cc3)[C@@H](OC3CCCC3)[C@H](C)OC2=O)c1OC(C)=O [Compound F66]	80 to 100%	80 to 100%	0 to 80%	0 to 80%	80 to 100%	80 to 100%	0 to 80%	0 to 80%
COc1ccnc(C(=O)N[C@H]2COC[C@H](Cc3ccc(C(F)(F)F)cc3)[C@@H](OC(=O)C(C)C)[C@H](C)OC2=O)c1OC(C)=O [Compound F67]	80 to 100%	–	0 to 80%	–	80 to 100%	–	80 to 100%	–
COc1ccnc(C(=O)N[C@H]2COC[C@H](CCC(C)C)[C@@H](OCC(C)C)[C@H](C)OC2=O)c1OC(C)=O [Compound F68]	80 to 100%	80 to 100%	80 to 100%	80 to 100%	80 to 100%	80 to 100%	80 to 100%	80 to 100%
COc1ccnc(C(=O)N[C@H]2COC[C@H](CCC(C)C)[C@@H](Oc3ccc(C)cc3)[C@H](C)OC2=O)c1OC(C)=O [Compound F69]	80 to 100%	80 to 100%	80 to 100%	80 to 100%	80 to 100%	80 to 100%	80 to 100%	0 to 80%
CCCO[C@@H]1[C@@H](CCC(C)C)COC[C@H](NC(=O)c2nccc(OC)c2OC(C)=O)C(=O)O[C@H]1C [Compound F70]	80 to 100%	–	80 to 100%	–	80 to 100%	–	80 to 100%	–
COc1ccnc(C(=O)N[C@H]2COC[C@H](CCC(C)C)[C@@H](OC3CCCC3)[C@H](C)OC2=O)c1OC(C)=O [Compound F71]	80 to 100%	–	80 to 100%	–	80 to 100%	–	80 to 100%	–
COc1ccnc(C(=O)N[C@H]2COC[C@H](Cc3cc(F)c(F)c(F)c3)[C@@H](OCC(C)C)[C@H](C)OC2=O)c1OC(C)=O [Compound F72]	80 to 100%	80 to 100%	80 to 100%	80 to 100%	80 to 100%	80 to 100%	80 to 100%	80 to 100%
COc1ccnc(C(=O)N[C@H]2COC[C@H](Cc3cccc4ccccc34)[C@@H](OC3CCCC3)[C@H](C)OC2=O)c1OCOC(C)=O [Compound F86]	80 to 100%	–	80 to 100%	–	80 to 100%	–	80 to 100%	–
